What was measured:
SMN2-luciferase reporter = SMN2-luciferase reporter qHTS assay; type: cell-based, human; parameters: key to Curve Class: A curve class of 1.1 is a full agonist/antagonist; a curve class of 4 indicates the compound is inactive; settings: for Curve Class: agonist/antagonist character of the concentration-response, lower values = more significant concentration-response; for Increased SMN2 activity: percent increase (or decrease) in SMN2 levels compared to control in which no test compound is added
In short: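 SMN2 exon-7 splicing firefly-luciferase reporter cell line, ~2000 cells/well in phenol-red-free DMEM with 10% serum, allowed to adhere 10–12 h, then exposed to compounds for 2 days at 37 C, 5% CO2. Seven-point five-fold dilution series (e.g. 50 μM to 3.2 nM), OneGlo luminescence read, curves fitted to Hill equation.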

human SMN protein = experiment: Western blot of SMN protein in SMA patient fibroblasts (3813); type: cell-based; settings: for SMN protein level versus dose (in words): different doses
Description: Type I spinal muscular atrophy (SMA)-affected human primary fibroblasts (#GM03813) and carrier parents (#GM03814, parent and #GM03815, […]) are obtained live with low passage number from Coriell Cell Repositories. […] For detection of SMN protein in patient fibroblasts, 8,000 cells per cm^2 are plated 24 hours prior to drug addition. Fresh media and compound are added every 24 hours. After 72 hours, cells are harvested, washed with cold PBS, and lysed. Samples are subjected to polyacrylamide gel electrophoresis (PAGE). It is determined that 10 μg total protein per lane is within the linear range for immunoblot detection of SMN and alpha-tubulin. Western blots of the gel are probed for SMN with the 4B7 mouse monoclonal antibody (from the lab of Christian Lorson). A goat anti-mouse antibody (Santa Cruz Biotechnology/#sc-2005) conjugated to horseradish peroxidase (HRP) is used as the secondary antibody. Quantification of protein is performed by detecting chemiluminescence with a Fujifilm LAS-4000 Multifunctional Imaging System. […] We incubated a fibroblast cell line from a type I SMA patient (3813 cell line) with different doses of analogues and assessed the SMN protein level by quantitative western blotting (FIG. 4). We observed that analogue 8 m at concentration of 37 nanomolar increased the SMN protein level by 2-3 fold. […] This could be due with the intrinsic mechanism of action or to other causes, such us concentration dependent compound solubility.

[1] = system: SMN positive foci or gems in the nucleus; experiment: Gem count in human type I SMA fibroblasts; type: cell-based; settings: 3 days, FIG. 5; for number of gems versus dose (in words): 37 nM-3000 nM
Text: Furthermore, the increase in SMN protein production led us to explore whether the arylpiperidine analogues had effect of on the overall number of SMN positive foci or gems in the nucleus. This would corroborate that the increased protein amounts represent indeed functional SMN protein. SMN protein is predominately a cytoplasmic protein in the nucleous SMN which localized to in distinct punctuate bodies often referred to as gems (gemini of coiled [Cajal] bodies). There is a direct correlation between the number of gems and total SMN protein production in the cell. Gem counts are commonly used as another metric to score the amount total SMN protein expressed on a cell-to-cell basis. […] Only 3.3% of nuclei have gems in fibroblast cells from SMA type I patients (cell line 3813), while 24.8% of nuclei have gems in fibroblast from a carrier parent (3814 cell line). We treated human type I SMA fibroblasts with increasing doses (37 nM 3000 nM) of arylpiperidine analogues 8a, 8m, and 9a for 3 days and the number of gems per 100 nuclei were examined (FIG. 5). Analogue 8m treatment yielded more than 2 fold of increase of the number of the gems at low 37 nM dose.

in vitro = in vitro ADME; settings: human, Caco-2
Description: CaCo-2 cells grown in tissue culture flasks are trypsinized, suspended in medium, and the suspensions are applied to wells of a collagen-coated BioCoat Cell Environment in 24-well format (BD Biosciences) at 24,500 cells per well. The cells are allowed to grow and differentiate for three weeks, feeding at 2-day intervals.
For Apical to Basolateral (A->B) permeability, the test agent is added at 50 μM to the apical (A) side and amount of permeation is determined on the basolateral (B) side; for Basolateral to Apical (B>A) permeability, the test agent is added at 50 μM to the B side and the amount of permeation is determine on the A side. The A-side buffer contains 100 μM Lucifer yellow dye, in Transport Buffer (1.98 g/L glucose in 10 mM HEPES, 1× Hank's Balanced Salt Solution) pH 6.5, and the B-side buffer is Transport Buffer, pH 7.4. CaCo-2 cells are incubated with these buffers for 2 h., and the receiver side buffer is removed for analysis by liquid chromatography-mass spectrometry (LC/MS/MS).
Additionally, several control compounds are tested in the identical assay.
To verify that CaCo-2 cell monolayers are properly formed, aliquots of the cell buffers are analyzed by fluorescence to determine the transport of the impermeable dye Lucifer Yellow.
Data are expressed as permeability (Papp): […]
where dQ/dt is the rate of permeation, C0 is the initial concentration of test agent, and A is the area of the monolayer.
In bidirectional permeability studies, the asymmetry index (AI) or efflux ratio is also calculated:
An AI>1 indicated a potential substrate for PGP or other active transporters.
Samples are analyzed by LC/MS/MS using either an Agilent 6410 mass spectrometer coupled with an Agilent 1200 high performance liquid chromatography (HPLC) and a CTC PAL chilled autosampler, all controlled by MassHunter software (Agilent), or an ABI2000 mass spectrometer coupled with an Agilent 1100 HPLC and a CTC PAL chilled autosampler, all controlled by Analyst software (ABI). After separation on a C18 reverse phase HPLC column (Agilent, Waters, or equivalent) using an acetonitrile-water gradient system, peaks are analyzed by mass spectrometry (MS) using electrospray ionization (ESI) in multiple reaction monitoring (MRM) mode.
The signal is optimized for each compound by ESI positive or negative ionization mode. A MS2 selected ion monitoring (SIM) scan is used to optimize the precursor ion and a product ion analysis is used to identify the best fragment for analysis and to optimize the collision energy.

SMN1-luciferase reporter = SMN1-luciferase reporter control cell line; type: cell-based, human; settings: SMN1-luc reporter, FIG. 1
Text: A cell-based quantitative high throughput screening (qHTS) assay is used to identify compounds able to increase SMN production. The assay uses a SMN2-luciferase reporter to determine if exon 7 of the SMN gene is expressed, which correlates with increased full-length SMN production from the SMN2 gene. As controls, a homologue SMN1-luciferase reporter cell line looks for variations in expression of the SMN1 gene and a cell line with just the luciferase reporter looks at the capacity of the compounds to inhibit luciferase. In addition, increments in SMN production by lead compounds were confirmed by Western-Blot analysis using SMA patient fibroblasts.
The SMN reporters used herein are modified from those previously described (M. L. Zhang, C. L. Lorson, E. J. Androphy and J. Zhou, An in vivo reporter system for measuring increased inclusion of exon 7 in SMN2 mRNA: potential therapy of SMA, Gene Ther 8 (2001), pp. 1532-1538.)
The sequence of the SMN1 reporter vector used herein is given in SEQ ID NO.:1, while that of the SMN2 reporter vector is given in SEQ ID NO.:2. […]

[2] = 3813 fibroblasts, quantitative western blotting, FIG. 4

Row | Compound | Papp A→B at 2 h, 10 μM (in vitro) | Curve Class (SMN2-luciferase reporter) | Increased SMN2 activity (SMN2-luciferase reporter) | SMN protein level versus dose (in words) (human SMN protein; [2]) | number of gems versus dose (in words) [1] | other results
1 | O=C(O)C1CCN(c2ncc(-c3ccc4c(c3)OCCCO4)s2)CC1 [Example 148, 1-(5-(3,4-Dihydro-2H-Benzo[B][1,4]Dioxepin-7-yl)Thiazol-2-yl)Piperidine-4-Carboxylic Acid] |  | 1.1 | 325.6% | dose-dependent trend between 37 nM to 1 μM concentration and a decrease of protein level at 3 μM | slightly decreased at 3000 nM | increase of the gem numbers ([1]; 37 nM to 1000 nM): 80%
2 | CSc1ccc(-c2cnc(N3CCC(C(N)=O)CC3)s2)cc1 [Example 134, 1-(5-(4-(Methylthio)Phenyl)Thiazol-2-yl)Piperidine-4-Carboxamide] |  | 1.1 | 576.1% | decreased with the increasing of the drug concentration | With the concentration increased, the numbers of gems was reduced | increase of SMN protein level (human SMN protein; 3813 fibroblasts, quantitative western blotting, 37 nanomolar, FIG. 4): 2-3 fold; increase of the number of the gems ([1]; 37 nM): more than 2 fold
3 | COc1nc(-c2ccccc2)nnc1-c1ccccc1 [MLS000763654] |  |  |  |  |  | expression of SMN2 / levels of the full length SMN2 gene (in words) (SMN2-luciferase reporter; SMN2-luc reporter, FIG. 1): increases the expression of SMN2; expression of SMN1 (in words) (SMN1-luciferase reporter): reduces the expression of SMN1; SMN protein by Western blot (in words) (human SMN protein; SMA patient cells (3813), 0.1-10 μM, FIG. 2): concentration-dependent increase in SMN protein

Second part, led by results:

Row | Papp A→B at 2 h, 10 μM (in vitro) | Compound | Curve Class (SMN2-luciferase reporter) | Increased SMN2 activity (SMN2-luciferase reporter) | SMN protein level versus dose (in words) (human SMN protein; [2]) | number of gems versus dose (in words) [1] | other results
4 | 0.42 ×10⁻⁶ cm/s | CNC(=C[N+](=O)[O-])NCCSCc1ccc(CN(C)C)o1 [Ranitidine, ranitidine, reference compound] |  |  |  |  | 
5 | 45.8 ×10⁻⁶ cm/s | CC(=O)CC(c1ccccc1)c1c(O)c2ccccc2oc1=O (centres unmarked) [Warfarin, reference compound] |  |  |  |  | Papp B→A at 2 h, 10 μM (in vitro): 11.7 ×10⁻⁶ cm/s

Reference: patent US20130096160A1, “ARYLTHIAZOLYL PIPERIDINES AND RELATED COMPOUNDS AS MODULATORS OF SURVIVAL MOTOR NEURON (SMN) PROTEIN PRODUCTION” (Secretary, Department of Health and Human Services, priority 2010, published 2013)
